Test results as given in ChEMBL document CHEMBL1152593, “Furanocoumarins: novel topoisomerase I inhibitors from Ruta graveolens L” (Bioorg Med Chem, 2009).
Calls of active or inactive are those of the source. No cut-off for these calls is given here.

Legend:
[1] = (§1) Inhibition of calf thymus DNA topoisomerase 1 assessed as pUC19 DNA relaxation by gel electrophoresis; parameters: species or system Bos taurus
[2] = species on record: Bos taurus; test: as §1
[3] = species on record: Bos taurus; test: Inhibition of calf thymus DNA topoisomerase 1 assessed as pUC19 DNA relaxation at 10 uM by gel electrophoresis
[4] = species on record: Bos taurus; test: Inhibition of calf thymus DNA topoisomerase 1 assessed as pUC19 DNA relaxation at 40 uM by gel electrophoresis
[5] = species on record: Bos taurus; test: Inhibition of calf thymus DNA topoisomerase 1 assessed as pUC19 DNA relaxation at 20 uM by gel electrophoresis

| SMILES | IC50 [1] | inhibition [2] | Activity [3] | inhibition [4] | inhibition [5] | inhibition [3] |
| --- | --- | --- | --- | --- | --- | --- |
| COc1c2ccoc2cc2oc(=O)ccc12 [BERGAPTEN] | 6.5 µM | Dose-dependent effect | Active |  |  |  |
| COc1c2occc2cc2ccc(=O)oc12 [METHOXSALEN] | 28 µM | Dose-dependent effect |  | Active |  |  |
| O=c1ccc2cc3ccoc3cc2o1 [PSORALEN] | 11 µM | Dose-dependent effect |  |  | 100% | inactive |
